{
  "source": "patent US20050250850A1",
  "about": "“Amino acid composition promoting collagen synthesis” (Ajinomoto Co., Inc., priority 2004, published 2005)",
  "system": "collagen synthesis in skin",
  "assay": "Rate of collagen synthesis in rat skin (incorporation of stable isotope-labelled L-phenylalanine into collagen)",
  "type": "in vivo, SD (IGS) male rats",
  "conditions": "rats fed protein-free food for one week, continuous administration into the jugular vein for approx. three and a half hours, neutral-salt-soluble newly synthesized collagen, t-test vs saline, * p<0.05, FIG. 1",
  "source_text": "SD (IGS) male rats consisting of 4 to 6 individuals per group were fed protein-free food (0% casein) for one week to groups of, after which the rats were used in the following experiments.\nThe administration fluids were each administered continuously into the jugular vein for approximately three and a half hours. Stable isotope-labelled L-phenylalanine was used to determine the rate of collagen synthesis by measuring the labelled percentage of stable isotope-labelled L-phenylalanine that had been incorporated in collagen protein within a fixed period of time. Skin was used as the tissue, and fractions of newly synthesized collagen dissoluble in a neutral salt solution were used as the collagen.\nThe group administered with physiological saline was used as the control, and assay was conducted by t-test. The symbol * in the figure represents p<0.05. […] Rate of collagen synthesis=ΔEt/ΔEf/ΔT (1) • ΔEt: labelled percentage of the phenylalanine in collagen fractions per unit time • ΔEf: labelled percentage of the free phenylalanine in the skin tissue fluid per unit time • ΔT: unit time",
  "data": [
    {"molecule": "NC(=O)CC[C@H](N)C(=O)O", "note": "[L-glutamine]", "values": [
      {"measurement": "rate of collagen synthesis in comparison with the group administered with physiological saline", "value": "enhancement from saline was not observed"}
    ]}
  ]
}
